{"source": "paper PMC8234864", "about": "“Early Effects of the Soluble Amyloid β25-35 Peptide in Rat Cortical Neurons: Modulation of Signal Transduction Mediated by Adenosine and Group I Metabotropic Glutamate Receptors” (International Journal of Molecular Sciences, 2021)", "key": {"[1]": {"test_system": "Caspase 3", "experiment": "Caspase 3 activity assay", "assay_type": "cell-based, rat", "details": "25 µM Aβ25-35 exposure", "experimental": "A commercial kit (Molecular Probes, Barcelona, Spain) was used to determine Caspase 3 activity following the manufacturer’s instructions. Briefly, cortical neurons growth in 24-well plates were exposed to Aβ25-35 or maintained under control conditions. Cells were lysed and lysates centrifuged to clear cell debris. Then, 50 µL of test buffer containing Z-DEVD-Rhodamine 110, DTT, EDTA, PIPES, and CHAPS was added to the supernatants obtained in the proportions indicated by the manufacturer. After 30 min of incubation at room temperature, the […] of each sample was measured on a plate reader (excitation/emission 496/520 nm)."}, "[2]": {"test_system": "mGluR5", "experiment": "Extracellular immunostaining of mGluR5 in non-permeabilized neurons", "assay_type": "cell-based, rat", "details": "25 µM, 24 h, whole-cell immunostaining", "experimental": "(§1) The quantitative analysis of the levels of Group I mGluR and mGluR2,3 at the plasma membrane was performed with extracellular targeted polyclonal antibodies (mGluR1, mGluR5 and mGluR2,3, Alomone Labs, Jerusalem, Israel), as previously described with minor modifications. Briefly, after 2 weeks in culture, the culture medium was removed and cells washed with Locke Buffer (LB, pH 7.4). Cells were then fixed with 4% paraformaldehyde for 10 min at room temperature and washed with three 10-min intervals with LB.\n(§2) Nonspecific staining was suppressed by blocking with 3% normal goat serum in LB for 60 min. […]\n(§3) To evaluate the degree of fluorescence intensity in cortical neurons, fluorescence was measured to estimate the protein expression in the different experimental conditions analyzed. Images (448.6 µm × 335.08 µm) obtained with a digital camera (Leica DFC350FX R2), attached to a Leica DMI6000B (Leica Microsystems, Wetzlar, Germany) fluorescent microscope, were used for quantification (20x HCX PL FLUOTAR 0.4 dry objective). […] Fluorescence intensity was estimated by averaging mean grey values. […] Data were normalized to the total number of cells in the analyzed fields. The mean fluorescence background, calculated in the unstained regions between neurons, was subtracted from the fluorescence intensity of each data point. […]"}, "[3]": {"test_system": "mGluR2,3", "experiment": "Extracellular immunostaining of mGluR2,3 in non-permeabilized neurons", "assay_type": "cell-based, rat", "details": "25 µM, 24 h", "experimental": "as §1, §2, §3"}, "[4]": {"molecular_target": "T1, A1R (Rattus norvegicus, UniProt P25099)", "T1 construct": "endogenous in cells; host or cells: rat primary cortical neurons (intact)", "T1 sequence (P25099 1-326)": "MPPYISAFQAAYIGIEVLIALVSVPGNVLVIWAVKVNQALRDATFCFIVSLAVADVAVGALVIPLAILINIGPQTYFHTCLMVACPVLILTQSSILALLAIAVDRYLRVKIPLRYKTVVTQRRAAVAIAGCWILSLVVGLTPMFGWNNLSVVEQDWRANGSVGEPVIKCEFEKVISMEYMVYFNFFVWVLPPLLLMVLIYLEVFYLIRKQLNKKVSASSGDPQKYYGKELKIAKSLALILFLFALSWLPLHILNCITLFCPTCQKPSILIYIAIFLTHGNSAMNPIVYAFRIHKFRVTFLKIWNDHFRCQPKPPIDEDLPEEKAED", "experiment": "[3H]DPCPX radioligand binding in intact cortical neurons", "details": "for Total A1R density (Bmax) increase over control value: 25 µM; for A1R Bmax: [3H]DPCPX saturation binding", "experimental": "Concerning adenosine receptor assessment by radioligand binding, [^3H]DPCPX and [^3H]ZM241385 were employed as selective A1R and A2AR radioligands, as described previously, to determine A1R and A2AR density, respectively. Briefly, primary cortical neurons growth in 24-well plates were washed with serum-free DMEM and pre-incubated with 2 U/mL ADA at 37 °C for 30 min to remove endogenous adenosine. After incubation, the radioligands [^3H]DPCPX (1–20 nM) or [^3H] ZM241385 (1–20 nM) were added in the absence or the presence of CPA in a concentration 10^4 times higher than the radioligand, to obtain non-specific binding to A1R, or 5 mM theophylline, to obtain non-specific binding to A2AR. A specific adenosine uptake inhibitor (1 µM dipyridamole) was added to the reaction mixture to block adenosine receptor ligands’ binding to adenosine transporters. After incubation at 25 °C for 2 h in a final volume of 250 µL, cells were washed with 500 µL of ice-cold buffer and disrupted with 0.2% SDS. Well contents were then transferred to vials and a scintillation liquid mixture was added to measure radioactivity. Two wells from each plate were reserved for protein concentration measurement."}, "[5]": {"details": "neurons exposed to 25 µM for 24 h"}, "[6]": {"details": "neurons exposed to 25 µM for 48 h"}}, "note": "Where no end group is shown, it is not given here."}
{"sequence": "GSNKGAIIGLM [Aβ25-35]", "values": [{"measurement": "caspase 3 activity", "setting": "[1]", "result": "increase"}, {"measurement": "mGluR5 density at the membrane level vs control value", "setting": "[2]", "result": "twice over control value"}, {"measurement": "mGluR2,3 density at the membrane surface of cell bodies", "setting": "[3]", "result": "decrease"}, {"measurement": "Total A1R density (Bmax) increase over control value", "setting": "[4]; 24 h", "result": 265, "unit": "%"}, {"measurement": "Total A1R density (Bmax) increase over control value", "setting": "[4]; 48 h", "result": 184, "unit": "%"}, {"measurement": "Kd", "setting": "[4]; [5]", "result": "7.51 ± 2.35", "unit": "nM"}, {"measurement": "A1R Bmax", "setting": "[4]; [5]", "result": "545 ± 101", "unit": "fmol/mg prot"}, {"measurement": "Kd", "setting": "[4]; [6]", "result": "5.51 ± 1.33", "unit": "nM"}, {"measurement": "A1R Bmax", "setting": "[4]; [6]", "result": "423 ± 66", "unit": "fmol/mg prot"}]}
